25 compounds from patent US20210198277A1, “AMINE-SUBSTITUTED ARYL OR HETEROARYL COMPOUNDS” (Epizyme, Inc., priority 2016, published 2021) can be followed below.

In one assay the target is T1, EHMT1 (Homo sapiens, UniProt Q9H9B1).
T1 sequence (Q9H9B1 1-1298): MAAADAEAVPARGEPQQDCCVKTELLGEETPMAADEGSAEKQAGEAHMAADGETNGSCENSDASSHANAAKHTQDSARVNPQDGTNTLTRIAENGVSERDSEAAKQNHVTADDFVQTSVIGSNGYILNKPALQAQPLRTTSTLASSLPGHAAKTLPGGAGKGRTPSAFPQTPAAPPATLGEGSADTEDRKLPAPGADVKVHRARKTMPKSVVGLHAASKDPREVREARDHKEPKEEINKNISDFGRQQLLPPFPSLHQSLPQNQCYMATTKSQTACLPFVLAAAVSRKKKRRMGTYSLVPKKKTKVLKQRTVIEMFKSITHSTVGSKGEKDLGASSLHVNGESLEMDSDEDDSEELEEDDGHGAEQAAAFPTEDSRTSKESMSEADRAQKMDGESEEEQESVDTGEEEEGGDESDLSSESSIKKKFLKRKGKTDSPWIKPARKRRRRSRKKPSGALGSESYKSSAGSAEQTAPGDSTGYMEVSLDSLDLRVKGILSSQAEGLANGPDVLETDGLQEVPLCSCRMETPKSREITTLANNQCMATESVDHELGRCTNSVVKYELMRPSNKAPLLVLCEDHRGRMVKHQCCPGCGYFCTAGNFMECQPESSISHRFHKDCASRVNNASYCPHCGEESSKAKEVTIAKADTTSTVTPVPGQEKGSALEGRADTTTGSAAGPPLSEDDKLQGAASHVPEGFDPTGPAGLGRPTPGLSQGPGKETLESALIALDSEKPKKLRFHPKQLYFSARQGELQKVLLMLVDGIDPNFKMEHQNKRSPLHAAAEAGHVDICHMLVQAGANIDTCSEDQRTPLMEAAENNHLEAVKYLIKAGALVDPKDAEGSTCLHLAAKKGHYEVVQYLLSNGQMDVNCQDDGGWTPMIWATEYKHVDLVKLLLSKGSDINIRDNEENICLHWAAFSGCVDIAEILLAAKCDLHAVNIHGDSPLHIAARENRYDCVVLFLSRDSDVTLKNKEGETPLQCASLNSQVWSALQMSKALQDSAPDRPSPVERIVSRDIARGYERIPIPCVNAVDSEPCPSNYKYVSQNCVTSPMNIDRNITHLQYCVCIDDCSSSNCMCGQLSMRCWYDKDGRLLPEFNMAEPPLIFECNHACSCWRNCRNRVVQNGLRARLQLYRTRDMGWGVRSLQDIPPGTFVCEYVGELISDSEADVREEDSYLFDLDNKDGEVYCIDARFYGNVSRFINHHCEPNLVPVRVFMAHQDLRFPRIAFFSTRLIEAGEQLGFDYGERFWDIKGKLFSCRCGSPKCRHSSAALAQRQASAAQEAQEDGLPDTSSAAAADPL
The assay is described as follows: EHMT1 enzyme assay on peptide substrate (EHMT1 PEP). Format: biochemical. Particulars: Table III; read-out: EHMT1 PEP (IC50 μM).

A further assay addresses T2, human EHMT2 913-1193 (Homo sapiens, UniProt Q96KQ7).
T2 construct: recombinant purified human EHMT2 913-1193, Viva; purchased Viva
T2 sequence (Q96KQ7 913-1193): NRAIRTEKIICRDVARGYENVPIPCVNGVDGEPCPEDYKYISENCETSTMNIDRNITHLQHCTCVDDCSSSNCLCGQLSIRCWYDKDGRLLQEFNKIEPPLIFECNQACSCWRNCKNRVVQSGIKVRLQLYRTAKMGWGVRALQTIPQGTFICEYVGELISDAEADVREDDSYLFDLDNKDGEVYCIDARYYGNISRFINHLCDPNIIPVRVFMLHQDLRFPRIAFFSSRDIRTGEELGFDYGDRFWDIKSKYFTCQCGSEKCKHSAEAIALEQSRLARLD
Put plainly: EHMT2 enzyme assay on histone peptide substrate (EHMT2 PEP). Conditions: Table III; read-out: EHMT2 PEP (IC50 μM). Format: biochemical. Summed up: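 Radiometric methyltransferase read-out: ^3H-methyl transfer from ^3H-SAM onto biotinylated histone peptide, captured on streptavidin Flashplates after 60 min reaction at room temperature. Enzyme 0.031 nM, preincubated 30 min with inhibitor; buffer 20 mM Bicine pH 7.5 with 1 mM TCEP; top compound concentration 50 μM final, 2% DMSO.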

As usually defined, the IC50 is the concentration that inhibits the measured activity by half.

As to `CNc1ccnc(Nc2ccc(OC)c(OCc3cc(C4CC4)on3)c2)n1` [Compound 426, N^2-(3-((5-cyclopropylisoxazol-3-yl)methoxy)-4-methoxyphenyl)-N^4-methylpyrimidine-2,4-diamine], the IC50 at EHMT1 and on human EHMT2 913-1193 was above 10 µM in each case.

For `CNc1ccnc(N[C@@H]2CCC[C@H](OCCCN3CCCC3)C2)n1` [Compound 427], the IC50 on EHMT1 and on human EHMT2 913-1193 was above 10 µM in each case.

As for `CNc1cc(CC(F)(F)F)nc(Nc2ccc(OC)c(OCCCN3CCCC3)c2)n1` [Compound 428, N^2-(4-methoxy-3-(3-(pyrrolidin-1-yl)propoxy)phenyl)-N^4-methyl-6-(2,2,2-trifluoroethyl)pyrimidine-2,4-diamine], the IC50 on EHMT1 and on human EHMT2 913-1193 was 1 to 10 µM each time.

For the compound `CNc1ccnc(Nc2ccc(OC)c(OCCCN3CCC3C)c2)n1` (centres unmarked) [Compound 429, N^2-(4-methoxy-3-(3-(2-methylazetidin-1-yl)propoxy)phenyl)-N^4-methylpyrimidine-2,4-diamine], the IC50 at EHMT1 and at human EHMT2 913-1193 was 0.1 to 1 µM throughout.

In the case of `CCOc1ccc(Nc2nccc(NC)n2)cc1OCCCN1CCCC1` [Compound 430, N^2-(4-ethoxy-3-(3-(pyrrolidin-1-yl)propoxy)phenyl)-N^4-methylpyrimidine-2,4-diamine], the IC50 at EHMT1 and at human EHMT2 913-1193 was above 10 µM throughout.

Regarding `CCOc1ccc(Nc2nccc(NC)n2)cc1OCC1CCN(C)C1` (centres unmarked) [Compound 431], the IC50 on EHMT1 and at human EHMT2 913-1193 was above 10 µM throughout.

In the case of `CCOc1ccc(Nc2nc(C)cc(NC)n2)cc1OCCCN1CCCC1` [Compound 432, N^2-(4-ethoxy-3-(3-(pyrrolidin-1-yl)propoxy)phenyl)-N^4,6-dimethylpyrimidine-2,4-diamine], the IC50 at EHMT1 and on human EHMT2 913-1193 was above 10 µM in each case.

In the case of `CNc1ccnc(Nc2ccc(OC)c(OCc3noc(C4CC4)n3)c2)n1` [Compound 433, N^2-(3-((5-cyclopropyl-1,2,4-oxadiazol-3-yl)methoxy)-4-methoxyphenyl)-N^4-methylpyrimidine-2,4-diamine], the IC50 is 1 to 10 µM at EHMT1 and above 10 µM on human EHMT2 913-1193.

`CNc1ccnc(Nc2ccc(OC)c(OCc3cn(C4CC4)nn3)c2)n1` [Compound 434, N^2-(3-((1-cyclopropyl-1H-1,2,3-triazol-4-yl)methoxy)-4-methoxyphenyl)-N^4-methylpyrimidine-2,4-diamine]: the IC50 at EHMT1 and on human EHMT2 913-1193 was above 10 µM throughout.

Take `CNc1cc(C)nc(Nc2ccc(OC)c(OCC3CCN(C)CC3)c2)n1` [Compound 435, N^2-(4-methoxy-3-((1-methylpiperidin-4-yl)methoxy)phenyl)-N^4,6-dimethylpyrimidine-2,4-diamine]: the IC50 on EHMT1 and at human EHMT2 913-1193 was 1 to 10 µM each time.

For the compound `CNc1cc(C)nc(Nc2ccc(OC)c(OCC3CCN(CC4CC4)CC3)c2)n1` [Compound 436, N^2-(3-((1-(cyclopropylmethyl)piperidin-4-yl)methoxy)-4-methoxyphenyl)-N^4,6-dimethylpyrimidine-2,4-diamine], the IC50 was above 10 µM on EHMT1 and 1 to 10 µM at human EHMT2 913-1193.

Consider `CNc1cc(C)nc(Nc2ccc(OC)c(OCC3CNC3)c2)n1` [Compound 437, N^2-(3-(azetidin-3-ylmethoxy)-4-methoxyphenyl)-N^4,6-dimethylpyrimidine-2,4-diamine], for which the IC50 is below 0.1 µM on EHMT1 and 0.1 to 1 µM at human EHMT2 913-1193.

With `CNc1ccnc(Nc2ccc(OC)c(OCCOC3CCCC3)c2)n1` [Compound 440, N^2-(3-(2-(cyclopentyloxy)ethoxy)-4-methoxyphenyl)-N^4-methylpyrimidine-2,4-diamine], the IC50 at EHMT1 and on human EHMT2 913-1193 was above 10 µM in each case.

Take `CNc1cc(COC)nc(Nc2ccc(OC)c(OCCCN3CCCC3)c2)n1` [Compound 441, N^2-(4-methoxy-3-(3-(pyrrolidin-1-yl)propoxy)phenyl)-6-(methoxymethyl)-N^4-methylpyrimidine-2,4-diamine]: the IC50 at EHMT1 and on human EHMT2 913-1193 was 0.1 to 1 µM in each case.

Consider `CNc1cc(C)nc(Nc2ccc(OC)c(OCC3CN(C)C3)c2)n1` [Compound 442, N^2-(4-methoxy-3-((1-methylazetidin-3-yl)methoxy)phenyl)-N^4,6-dimethylpyrimidine-2,4-diamine], for which the IC50 on EHMT1 and at human EHMT2 913-1193 was below 0.1 µM each time.

In the case of `CNc1cc(C)nc(Nc2ccc(OC)c(OC3CCN(CC4CC4)CC3)c2)n1` [Compound 443], the IC50 on EHMT1 and at human EHMT2 913-1193 was above 10 µM each time.

`CCN1CC(COc2cc(Nc3nc(C)cc(NC)n3)ccc2OC)C1` [Compound 444]: the IC50 at EHMT1 and at human EHMT2 913-1193 was below 0.1 µM each time.

Turning to `CNc1cc(C)nc(Nc2ccc(OC)c(OCC3CN(CC4CC4)C3)c2)n1` [Compound 445, N^2-(3-((1-(cyclopropylmethyl)azetidin-3-yl)methoxy)-4-methoxyphenyl)-N^4,6-dimethylpyrimidine-2,4-diamine], the IC50 on EHMT1 and at human EHMT2 913-1193 was 0.1 to 1 µM each time.

`CNc1cc(C)nc(Nc2ccc(OC)c(OCC3CCN(C4CCC4)C3)c2)n1` (centres unmarked) [Compound 446, N^2-(3-((1-cyclobutylpyrrolidin-3-yl)methoxy)-4-methoxyphenyl)-N^4,6-dimethylpyrimidine-2,4-diamine]: the IC50 at EHMT1 and on human EHMT2 913-1193 was below 0.1 µM throughout.

Take `COc1ccc(Nc2nc(C)cc(O)n2)cc1OCCCN1CCCC1` [Compound 447, 2-((4-methoxy-3-(3-(pyrrolidin-1-yl)propoxy)phenyl)amino)-6-methylpyrimidin-4-ol]: the IC50 on EHMT1 and on human EHMT2 913-1193 was above 10 µM each time.

As to `COc1ccc(Nc2cc(C)nc(O)n2)cc1OCCCN1CCCC1` [Compound 448, 4-((4-methoxy-3-(3-(pyrrolidin-1-yl)propoxy)phenyl)amino)-6-methylpyrimidin-2-ol], the IC50 at EHMT1 and on human EHMT2 913-1193 was above 10 µM in each case.

On to `CNc1cc(C)nc(Nc2ccc(OC)c(OCC3CCN(C4COC4)C3)c2)n1` (centres unmarked) [Compound 449, N^2-(4-methoxy-3-((1-(oxetan-3-yl)pyrrolidin-3-yl)methoxy)phenyl)-N^4,6-dimethylpyrimidine-2,4-diamine], for which the IC50 on EHMT1 and on human EHMT2 913-1193 was 0.1 to 1 µM throughout.

In the case of `CNc1cc(N2CCCC2)nc(Nc2ccc(OC)c(OCCCN3CCCC3)c2)n1` [Compound 450, N^2-(4-methoxy-3-(3-(pyrrolidin-1-yl)propoxy)phenyl)-N^4-methyl-6-(pyrrolidin-1-yl)pyrimidine-2,4-diamine], the IC50 at EHMT1 was above 10 µM; at human EHMT2 913-1193, 1 to 10 µM.

On to `COc1ccc(Nc2nc(C)cc(NCC3CCOCC3)n2)cc1OCC1CCN(C)C1` (centres unmarked) [Compound 451, N^2-(4-methoxy-3-((1-methylpyrrolidin-3-yl)methoxy)phenyl)-6-methyl-N^4-((tetrahydro-2H-pyran-4-yl)methyl)pyrimidine-2,4-diamine], for which the figures for the IC50 at EHMT1 and on human EHMT2 913-1193 were below 0.1 µM and 0.1 to 1 µM, respectively.

In the case of `CNc1cc(C)nc(Nc2ccc(OC)c(OCC3CCCO3)c2)n1` (centres unmarked) [Compound 452, N^2-(4-methoxy-3-((tetrahydrofuran-2-yl)methoxy)phenyl)-N^4,6-dimethylpyrimidine-2,4-diamine], the IC50 was 1 to 10 µM on EHMT1 and above 10 µM at human EHMT2 913-1193.
